Data published in the NIST ThermoML archive (doi:10.1021/acs.jced.8b00537).
± gives the expanded uncertainty stated by the source.

Assay: xn = mol fraction of the nth substance listed
Conditions: 100 kPa, Liquid; for viscosity: Capillary tube (Ostwald / Ubbelohde) method; for speed of sound: Frequency=3 MHz, Single path-length method; for mass density: Vibrating tube method

CC[S+](CC)CC.O=S(=O)([N-]S(=O)(=O)C(F)(F)F)C(F)(F)F [triethylsulfonium bis((trifluoromethyl)sulfonyl)imide] + CCCO
Conditions	mass density [kg/m3]	speed of sound [m/s]	viscosity [mPa·s]
293.15 K, x1 = 0.04926	910 ± 2	1205.5 ± 6	2.874 ± 0.23
293.15 K, x1 = 0.1003	996 ± 2	1194.3 ± 6	4.059 ± 0.33
293.15 K, x1 = 0.1993	1120 ± 2	1195 ± 6	5.998 ± 0.48
293.15 K, x1 = 0.3008	1209 ± 3	1203.1 ± 6	7.862 ± 0.63
293.15 K, x1 = 0.3991	1273 ± 3	1212.3 ± 6	10.68 ± 0.86
293.15 K, x1 = 0.5023	1324 ± 3	1222.2 ± 6	12.28 ± 0.98
293.15 K, x1 = 0.5987	1363 ± 3	1228.5 ± 6	15.93 ± 1.3
293.15 K, x1 = 0.6987	1395 ± 3	1235.2 ± 6	19.92 ± 1.6
293.15 K, x1 = 0.7947	1421 ± 3	1240.6 ± 6.1	24.95 ± 2
293.15 K, x1 = 0.903	1446 ± 3	1245.8 ± 6.1	31.64 ± 2.5
293.15 K, x1 = 1	1465 ± 3	1252.9 ± 6.1	39.64 ± 3.2
298.15 K, x1 = 0.04926	906 ± 2	1190.3 ± 6	2.515 ± 0.2
298.15 K, x1 = 0.1003	992 ± 2	1179.9 ± 6	3.438 ± 0.28
298.15 K, x1 = 0.1993	1115 ± 2	1181.8 ± 6	5.082 ± 0.41
298.15 K, x1 = 0.3008	1204 ± 2	1190.5 ± 6	6.704 ± 0.54
298.15 K, x1 = 0.3991	1268 ± 3	1200.2 ± 6	9.087 ± 0.73
298.15 K, x1 = 0.5023	1319 ± 3	1210.3 ± 6	10.45 ± 0.84
298.15 K, x1 = 0.5987	1358 ± 3	1217 ± 6	13.49 ± 1.1
298.15 K, x1 = 0.6987	1390 ± 3	1223.8 ± 6	16.79 ± 1.3
298.15 K, x1 = 0.7947	1416 ± 3	1229.4 ± 6.1	20.88 ± 1.7
298.15 K, x1 = 0.903	1441 ± 3	1234.8 ± 6.1	26.25 ± 2.1
298.15 K, x1 = 1	1460 ± 3	1242.5 ± 6.1	32.43 ± 2.6
303.15 K, x1 = 0.04926	901 ± 2	1174.8 ± 6	2.216 ± 0.18
303.15 K, x1 = 0.1003	987 ± 2	1165.6 ± 6	2.978 ± 0.24
303.15 K, x1 = 0.1993	1111 ± 2	1168.7 ± 6	4.379 ± 0.35
303.15 K, x1 = 0.3008	1199 ± 2	1178.1 ± 6	5.78 ± 0.46
303.15 K, x1 = 0.3991	1263 ± 3	1188.2 ± 6	7.814 ± 0.63
303.15 K, x1 = 0.5023	1314 ± 3	1198.7 ± 6	8.985 ± 0.72
303.15 K, x1 = 0.5987	1353 ± 3	1205.5 ± 6	11.56 ± 0.93
303.15 K, x1 = 0.6987	1386 ± 3	1212.6 ± 6	14.33 ± 1.1
303.15 K, x1 = 0.7947	1411 ± 3	1218.3 ± 6.1	17.71 ± 1.4
303.15 K, x1 = 0.903	1436 ± 3	1223.9 ± 6.1	22.1 ± 1.8
303.15 K, x1 = 1	1455 ± 3	1232.4 ± 6.1	26.92 ± 2.2
308.15 K, x1 = 0.04926	897 ± 2	1159.5 ± 6	1.962 ± 0.16
308.15 K, x1 = 0.1003	983 ± 2	1151.3 ± 6	2.609 ± 0.21
308.15 K, x1 = 0.1993	1106 ± 2	1155.7 ± 6	3.816 ± 0.31
308.15 K, x1 = 0.3008	1194 ± 2	1165.8 ± 6	5.034 ± 0.4
308.15 K, x1 = 0.3991	1258 ± 3	1176.3 ± 6	6.787 ± 0.54
308.15 K, x1 = 0.5023	1310 ± 3	1187.1 ± 6	7.806 ± 0.63
308.15 K, x1 = 0.5987	1348 ± 3	1194.2 ± 6	10.01 ± 0.8
308.15 K, x1 = 0.6987	1381 ± 3	1201.5 ± 6	12.35 ± 0.99
308.15 K, x1 = 0.7947	1407 ± 3	1207.4 ± 6.1	15.19 ± 1.2
308.15 K, x1 = 0.903	1431 ± 3	1213.1 ± 6.1	18.81 ± 1.5
308.15 K, x1 = 1	1450 ± 3	1222.4 ± 6.1	22.64 ± 1.8
313.15 K, x1 = 0.04926	893 ± 2	1144.2 ± 6	1.747 ± 0.14
313.15 K, x1 = 0.1003	978 ± 2	1137.2 ± 6	2.304 ± 0.18
313.15 K, x1 = 0.1993	1101 ± 2	1142.8 ± 6	3.354 ± 0.27
313.15 K, x1 = 0.3008	1190 ± 2	1153.5 ± 6	4.421 ± 0.35
313.15 K, x1 = 0.3991	1253 ± 3	1164.5 ± 6	5.945 ± 0.48
313.15 K, x1 = 0.5023	1305 ± 3	1175.6 ± 6	6.842 ± 0.55
313.15 K, x1 = 0.5987	1343 ± 3	1183 ± 6	8.742 ± 0.7
313.15 K, x1 = 0.6987	1376 ± 3	1190.5 ± 6	10.75 ± 0.86
313.15 K, x1 = 0.7947	1402 ± 3	1196.6 ± 6.1	13.15 ± 1.1
313.15 K, x1 = 0.903	1426 ± 3	1202.5 ± 6.1	16.18 ± 1.3
313.15 K, x1 = 1	1446 ± 3	1212.7 ± 6.1	19.24 ± 1.5
318.15 K, x1 = 0.04926	888 ± 2	1129 ± 6	1.563 ± 0.12
318.15 K, x1 = 0.1003	974 ± 2	1123.1 ± 6	2.049 ± 0.16
318.15 K, x1 = 0.1993	1097 ± 2	1129.9 ± 6	2.972 ± 0.24
318.15 K, x1 = 0.3008	1185 ± 2	1141.3 ± 6	3.913 ± 0.31
318.15 K, x1 = 0.3991	1249 ± 3	1152.7 ± 6	5.25 ± 0.42
318.15 K, x1 = 0.5023	1300 ± 3	1164.2 ± 6	6.044 ± 0.49
318.15 K, x1 = 0.5987	1338 ± 3	1171.9 ± 6	7.698 ± 0.62
318.15 K, x1 = 0.6987	1371 ± 3	1179.6 ± 6	9.441 ± 0.76
318.15 K, x1 = 0.7947	1397 ± 3	1185.8 ± 6.1	11.49 ± 0.92
318.15 K, x1 = 0.903	1422 ± 3	1191.9 ± 6.1	14.06 ± 1.1
318.15 K, x1 = 1	1441 ± 3	1203.1 ± 6.1	16.53 ± 1.3
323.15 K, x1 = 0.04926	884 ± 2	1113.8 ± 6	1.404 ± 0.11
323.15 K, x1 = 0.1003	969 ± 2	1109.1 ± 6	1.833 ± 0.15
323.15 K, x1 = 0.1993	1092 ± 2	1117.1 ± 6	2.651 ± 0.21
323.15 K, x1 = 0.3008	1180 ± 2	1129.2 ± 6	–
323.15 K, x1 = 0.3991	1244 ± 3	1141.1 ± 6	4.67 ± 0.38
323.15 K, x1 = 0.5023	1295 ± 3	1152.9 ± 6	5.379 ± 0.43
323.15 K, x1 = 0.5987	1334 ± 3	1160.8 ± 6	6.831 ± 0.55
323.15 K, x1 = 0.6987	1366 ± 3	1168.8 ± 6	8.347 ± 0.67
323.15 K, x1 = 0.7947	1392 ± 3	1175.2 ± 6.1	10.12 ± 0.81
323.15 K, x1 = 0.903	1417 ± 3	1181.5 ± 6.1	12.31 ± 0.99
323.15 K, x1 = 1	1436 ± 3	1193.7 ± 6.1	14.31 ± 1.1
328.15 K, x1 = 0.04926	879 ± 2	1098.6 ± 6	1.268 ± 0.1
328.15 K, x1 = 0.1003	965 ± 2	1095.1 ± 6	1.648 ± 0.13
328.15 K, x1 = 0.1993	1087 ± 2	1104.3 ± 6	2.38 ± 0.19
328.15 K, x1 = 0.3008	1175 ± 2	1117.2 ± 6	3.13 ± 0.25
328.15 K, x1 = 0.3991	1239 ± 3	1129.5 ± 6	4.187 ± 0.34
328.15 K, x1 = 0.5023	1290 ± 3	1141.6 ± 6	4.822 ± 0.39
328.15 K, x1 = 0.5987	1329 ± 3	1149.9 ± 6	6.099 ± 0.49
328.15 K, x1 = 0.6987	1362 ± 3	1158.1 ± 6	7.438 ± 0.6
328.15 K, x1 = 0.7947	1388 ± 3	1164.7 ± 6.1	8.976 ± 0.72
328.15 K, x1 = 0.903	1412 ± 3	1171.2 ± 6.1	10.86 ± 0.87
328.15 K, x1 = 1	1431 ± 3	1184.7 ± 6.1	12.5 ± 1
333.15 K, x1 = 0.04926	875 ± 2	1083.4 ± 6	1.149 ± 0.092
333.15 K, x1 = 0.1003	960 ± 2	1081.1 ± 6	1.489 ± 0.12
333.15 K, x1 = 0.1993	1082 ± 2	1091.5 ± 6	2.148 ± 0.17
333.15 K, x1 = 0.3008	1170 ± 2	1105.2 ± 6	2.825 ± 0.23
333.15 K, x1 = 0.3991	1234 ± 3	1118 ± 6	3.775 ± 0.3
333.15 K, x1 = 0.5023	1285 ± 3	1130.5 ± 6	4.346 ± 0.35
333.15 K, x1 = 0.5987	1324 ± 3	1139.1 ± 6	5.483 ± 0.44
333.15 K, x1 = 0.6987	1357 ± 3	1147.5 ± 6	6.667 ± 0.54
333.15 K, x1 = 0.7947	1383 ± 3	1154.3 ± 6.1	8.024 ± 0.64
333.15 K, x1 = 0.903	1407 ± 3	1161 ± 6.1	9.653 ± 0.78
333.15 K, x1 = 1	1427 ± 3	1175.9 ± 6.1	10.99 ± 0.88
338.15 K, x1 = 0.04926	870 ± 2	1068.2 ± 6	1.044 ± 0.084
338.15 K, x1 = 0.1003	955 ± 2	1067.1 ± 6	1.352 ± 0.11
338.15 K, x1 = 0.1993	1078 ± 2	1078.7 ± 6	1.95 ± 0.16
338.15 K, x1 = 0.3008	1166 ± 2	1093.3 ± 6	2.563 ± 0.21
338.15 K, x1 = 0.3991	1229 ± 3	1106.6 ± 6	3.422 ± 0.27
338.15 K, x1 = 0.5023	1281 ± 3	1119.3 ± 6	3.941 ± 0.32
338.15 K, x1 = 0.5987	1319 ± 3	1128.3 ± 6	4.956 ± 0.4
338.15 K, x1 = 0.6987	1352 ± 3	1137 ± 6	6.007 ± 0.48
338.15 K, x1 = 0.7947	1378 ± 3	1144 ± 6.1	7.206 ± 0.58
338.15 K, x1 = 0.903	1403 ± 3	1150.8 ± 6.1	8.628 ± 0.69
338.15 K, x1 = 1	1422 ± 3	1166.8 ± 6.1	9.726 ± 0.78
343.15 K, x1 = 0.04926	866 ± 2	1052.9 ± 6	0.953 ± 0.076
343.15 K, x1 = 0.1003	951 ± 2	1053.3 ± 6	1.232 ± 0.099
343.15 K, x1 = 0.1993	1073 ± 2	1066.2 ± 6	1.778 ± 0.14
343.15 K, x1 = 0.3008	1161 ± 2	1081.5 ± 6	2.339 ± 0.19
343.15 K, x1 = 0.3991	1224 ± 3	1095.4 ± 6	3.123 ± 0.25
343.15 K, x1 = 0.5023	1276 ± 3	1108.3 ± 6	3.594 ± 0.29
343.15 K, x1 = 0.5987	1315 ± 3	1117.8 ± 6	4.507 ± 0.36
343.15 K, x1 = 0.6987	1347 ± 3	1126.8 ± 6	5.444 ± 0.44
343.15 K, x1 = 0.7947	1373 ± 3	1134 ± 6.1	6.506 ± 0.52
343.15 K, x1 = 0.903	1398 ± 3	1141 ± 6.1	7.766 ± 0.62
343.15 K, x1 = 1	1417 ± 3	1157.6 ± 6.1	8.659 ± 0.69
